Test results from patent US9649379B2, “Pharmaceutical composition and pharmaceutical kit for the treatment of hepatocellular carcinoma” (ALMA MATER STUDIORUM—UNIVERSITA' DI BOLOGNA, priority 2007, dated 2017).

System: Cleaved PARP
Assay: Apoptosis analysis: Western blot of cleaved PARP after doxorubicin
Type: cell-based, human
Details: doxorubicin 100 μg/ml, infected HepG2 cells
Method: Stably infected cell populations of HepG2 cells were seeded into 6-well dishes and allowed to attach for 24 hours, washed and cultured in fresh complete medium with 100 ug/ml doxorubicin (Sigma) for 1 h, 3 h, 6 h, 12 h, 18 h and 24 h. Doxorubicin incorporation was detected by FACS counting of 10,000 events.
Cultured cells were dissolved in lysis buffer containing 10 mM Tris-HCl pH 7.4, 2.5 mM MgCl2, 1% TritonX 100, 1 mM DTT, 0.1 mM phenylmethylsulfonyl fluoride (PMSF), 1 mM Na3VO4, 1 mM NaF and protease inhibitors (Sigma Chemical Company, St. Louis, Mo.). The lysate was centrifuged at 4° C., 15,000×g, for 15 min and the supernatant assayed for protein concentration by Bio-Rad protein assay (Bio-Rad). […]
After repeated washing in PBS containing 0.1% Tween 20 (PBST), membranes were incubated with anti-mouse or anti-rabbit HRP-conjugated secondary antibodies using the EnVision dextran polymer visualization system (Dako). […] Digital images of autoradiographs were acquired with a Fluor-S MultiImager scanner (BioRad) and signals were quantitated with Quantity-one densitometric software (BioRad, Hercules, Calif.) in absorbance units after light calibration with a reference autoradiograph.

COc1cccc2c1C(=O)c1c(O)c3c(c(O)c1C2=O)C[C@@](O)(C(=O)CO)C[C@@H]3O[C@H]1C[C@H](N)[C@H](O)[C@H](C)O1 [Doxorubicin, doxorubicin]
cleavage of PARP: caused cleavage of PARP
